Patent US7351728B2, “Oxazolyl-aryloxyacetic acid derivatives and their use as PPAR agonists” (Eli Lilly and Company, priority 2003, dated 2008)

Test system: db/db mice
Assay: Evaluation of glucose levels in db/db mice
Format: in vivo
Details: Mus musculus, 168 h; 30 mg/kg daily oral gavage 7 days, male db/db mice; 100% = lean values; read-out: Glucose Normalization %
Method: Five week old male diabetic (db/db) mice [C57BlKs/j-m +/+ Lepr(db), Jackson Laboratory, Bar Harbor, Me.] or lean littermates (db+) were housed 6 per cage (10″×20″×8″ with aspen chip bedding) with food (Purina 5015) and water available at all times. After an acclimation period of 2 weeks, animals were individually identified by ear notches, weighed, and bled via the tail vein for determination of initial glucose levels. Blood was collected (100 μl) from unfasted animals by wrapping each mouse in a towel, cutting the tip of the tail with a scalpel, and milking blood from the tail into a heparinized capillary tube (Fisher) balanced on the edge of the bench. Sample was discharged into a heparinized microtainer with gel separator (VWR) and retained on ice. Plasma was obtained after centrifugation at 4° C. and glucose measured immediately. Remaining plasma was frozen until the completion of the experiment, when glucose and triglycerides were assayed in all samples. Animals were grouped based on initial glucose levels and body weights. Beginning the following morning, mice were dosed daily by oral gavage for 7 days using a 20 gauge, 1½″ curved disposable feeding needle. Treatments were test compounds (30 mg/kg), a positive control agent (30 mg/kg) or vehicle [1% carboxymethylcellulose (w/v)/0.25% Tween80 (w/v); 0.3 ml/mouse]. On day 7, mice were weighed and bled (tail vein) 3 hours after dosing. Twenty-four hours after the 7th dose (i.e., day 8), animals were bled again (tail vein). Samples obtained from conscious animals on days 0, 7 and 8 were assayed for glucose. After the 24 hour bleed, animals were weighed and dosed for the final time. Three hours after dosing on day 8, animals were anesthetized by inhalation of isoflurane and blood obtained via cardiac puncture (0.5-0.7 ml). Whole blood was transferred to serum separator tubes, chilled on ice and permitted to clot. Serum was obtained after centrifugation at 4° C. and frozen until analysis for compound levels. After sacrifice by cervical dislocation, the liver, heart and epididymal fat pads were excised and weighed.
The animals dosed with vehicle had average triglycerides values of 170-230 mg/dl, which were reduced by the positive PPARγ control (70-120 mg/dl with a mean reduction of 50%). Male db/db mice were hyperglycemic (average glucose of 680-730 mg/dl on the 7th day of treatment), while lean animals had average glucose levels between 190-230 mg/dl.
Glucose was measured colorimetrically using commercially purchased reagents (Sigma #315-500). According to the manufacturers, the procedures were modified from published work (McGowan, M. W., Artiss, J. D., Strandbergh, D. R. & Zak, B. Clin Chem, 20:470-5 (1974) and Keston, A. Specific colorimetric enzymatic analytical reagents for glucose. Abstract of papers 129th Meeting ACS, 31C (1956).); and depend on the release of a mole of hydrogen peroxide for each mole of analyte, coupled with a color reaction first described by Trinder (Trinder, P. Determination of glucose in blood using glucose oxidase with an alternative oxygen acceptor. Ann Clin Biochem, 6:24 (1969)). The absorbance of the dye produced is linearly related to the analyte in the sample. The assays were further modified in our laboratory for use in a 96 well format. Standards (Sigma #339-11, Sigma #16-11, and Sigma #CC0534 for glucose triglycerides and total cholesterol, respectively), quality control plasma (Sigma # A2034), and samples (2 or 5 μl/well) were measured in duplicate using 200 μl of reagent. An additional aliquot of sample, pipetted to a third well and diluted in 200 μl water, provided a blank for each specimen. Plates were incubated at room temperature (18, 15, and 10 minutes for glucose, triglycerides and total cholesterol, respectively) on a plate shaker (DPC Micormix 5) and absorbance read at 500 nm (glucose and total cholesterol) or 540 nm (triglycerides) on a plate reader (Wallac Victor 1420). […]

| Compound | inhibition in vivo at 30 mg/kg |
| --- | --- |
| Cc1oc(-c2ccccc2)nc1CCOc1ccc(OC(C)(C)C(=O)O)cc1 [Example 1, 2-Methyl-2-{4-[2-(5-methyl-2-phenyloxazol-4-yl)ethoxy]phenoxy}propionic acid] | 38% |
| Cc1oc(-c2cccc(Br)c2)nc1CCOc1ccc(OC(C)(C)C(=O)O)cc1 [Example 9A, 2-(4-{2-[2-(3-Bromophenyl)-5-methyloxazol-4-yl]ethoxy}phenoxy)-2-methylpropionic acid] | 86% |
| CCc1cccc(-c2nc(CCOc3ccc(OC(C)(C)C(=O)O)cc3)c(C)o2)c1 [Example 12, 2-(4-{2-[2-(3-Ethylphenyl)-5-methyloxazol-4-yl]ethoxy}phenoxy)-2-methylpropionic acid] | 101% |
| Cc1oc(-c2cccc(CCc3ccccc3)c2)nc1CCOc1ccc(OC(C)(C)C(=O)O)cc1 [Example 12A, 2-Methyl-2-(4-{2-[5-methyl-2-(3-phenethylphenyl)oxazol-4-yl]ethoxy}phenoxy)-propionic acid] | 51% |
| CCc1ccc(-c2nc(CCOc3ccc(OC(C)(C)C(=O)O)cc3)c(C)o2)cc1 [Example 13, 2-(4-{2-[2-(4-Ethylphenyl)-5-methyloxazol-4-yl]ethoxy}phenoxy)-2-methylpropionic acid] | 65% |
| Cc1oc(-c2ccc(OC3CCCCC3)cc2)nc1CCOc1ccc(OC(C)(C)C(=O)O)cc1 [Example 21, 2-(4-{2-[2-(4-Cyclohexyloxy-phenyl)-5-methyl-oxazol-4-yl]-ethoxy}-phenoxy)-2-methyl-propionic acid] | 23% |
| Cc1cc(OCCc2nc(-c3ccccc3)oc2C)ccc1OC(C)(C)C(=O)O [Example 24, 2-Methyl-2-{2-methyl-4-[2-(5-methyl-2-phenyloxazol-4-yl)ethoxy]phenoxy}propionic acid] | 72% |
| CCCc1cc(OCCc2nc(-c3ccccc3)oc2C)ccc1OCC(=O)O [Example 26, {4-[2-(5-methyl-2-phenyl-oxazol-4-yl)ethoxy]-2-propylphenoxy}acetic acid] | 42% |
| CCCc1cc(OCCc2nc(-c3ccccc3)oc2C)ccc1OC(C)(C)C(=O)O [Example 26A, 2-Methyl-2-{4-[2-(5-methyl-2-phenyloxazol-4-yl)ethoxy]-2-propylphenoxy}propionic acid] | 77% |
| CCCc1cc(OC(C)(C)C(=O)O)ccc1OCCc1nc(-c2ccccc2)oc1C [Example 27A, 2-Methyl-2-{4-[2-(5-methyl-2-phenyloxazol-4-yl)ethoxy]-3-propylphenoxy}propionic acid] | 62% |
| CCc1cc(OCCc2nc(-c3ccccc3)oc2C)ccc1OC(C)(C)C(=O)O [Example 30A, 2-{2-Ethyl-4-[2-(5-methyl-2-phenyloxazol-4-yl)ethoxy]phenoxy}2-methylpropionic acid] | 76% |
| Cc1oc(-c2ccccc2)nc1CCOc1ccc(OC(C)(C)C(=O)O)c(CC(C)C)c1 [Example 30C, 2-{2-Isobutyl-4-[2-(5-methyl-2-phenyloxazol-4-yl)ethoxy]phenoxy}-2-methylpropionic acid] | 48% |
| Cc1oc(-c2ccccc2)nc1CCOc1ccc(OC(C)(C)C(=O)O)c(CCc2ccccc2)c1 [Example 30J, 2-Methyl-2-{4-[2-(5-methyl-2-phenyloxazol-4-yl)ethoxy]-2-phenethylphenoxy}propionic acid] | 58% |
| CCCCc1cc(OC(C)(C)C(=O)O)ccc1OCCc1nc(-c2ccccc2)oc1C [Example 31F, 2-{3-Butyl-4-[2-(5-methyl-2-phenyloxazol-4-yl)ethoxy]phenoxy}-2-methylpropionic acid] | 77% |
| Cc1oc(-c2ccccc2)nc1CCOc1ccc(OC(C)(C)C(=O)O)c(Cc2ccccc2)c1 [Example 32, 2-{2-Benzyl-4-[2-(5-methyl-2-phenyloxazol-4-yl)ethoxy]phenoxy}-2-methylpropionic acid] | 47% |
| Cc1oc(-c2ccccc2)nc1CCOc1ccc(OC(C)(C)C(=O)O)c2ccccc12 [Example 37, 2-Methyl-2-{4-[2-(5-methyl-2-phenyl-oxazol-4-yl)-ethoxy]-naphthalen-1-yloxy}-propionic acid] | 56% |
| Cc1oc(-c2ccccc2)nc1CCOc1ccc(OC(C)(C)C(=O)O)c2c1CCCC2 [Example 38, 2-Methyl-2-{4-[2-(5-methyl-2-phenyl-oxazol-4-yl)-ethoxy]-5,6,7,8-tetrahydro-naphthalen-1-yloxy}-propionic acid] | 38% |
